Data on 15 molecules can be found in patent US20250241926A1, “HETEROCYCLIC COMPOUNDS FOR USE IN THE TREATMENT OF CANCER” (ARTIOS PHARMA LIMITED, priority 2021, published 2025).

One test has as its target T1, Human Polθ polymerase domain (aa1820-2590) (Homo sapiens, UniProt O75417).
T1 construct: Human Polθ polymerase domain (aa1820-2590) was expressed in E. Coli; made in house; host or cells: E. coli
T1 sequence (O75417 1820-2590): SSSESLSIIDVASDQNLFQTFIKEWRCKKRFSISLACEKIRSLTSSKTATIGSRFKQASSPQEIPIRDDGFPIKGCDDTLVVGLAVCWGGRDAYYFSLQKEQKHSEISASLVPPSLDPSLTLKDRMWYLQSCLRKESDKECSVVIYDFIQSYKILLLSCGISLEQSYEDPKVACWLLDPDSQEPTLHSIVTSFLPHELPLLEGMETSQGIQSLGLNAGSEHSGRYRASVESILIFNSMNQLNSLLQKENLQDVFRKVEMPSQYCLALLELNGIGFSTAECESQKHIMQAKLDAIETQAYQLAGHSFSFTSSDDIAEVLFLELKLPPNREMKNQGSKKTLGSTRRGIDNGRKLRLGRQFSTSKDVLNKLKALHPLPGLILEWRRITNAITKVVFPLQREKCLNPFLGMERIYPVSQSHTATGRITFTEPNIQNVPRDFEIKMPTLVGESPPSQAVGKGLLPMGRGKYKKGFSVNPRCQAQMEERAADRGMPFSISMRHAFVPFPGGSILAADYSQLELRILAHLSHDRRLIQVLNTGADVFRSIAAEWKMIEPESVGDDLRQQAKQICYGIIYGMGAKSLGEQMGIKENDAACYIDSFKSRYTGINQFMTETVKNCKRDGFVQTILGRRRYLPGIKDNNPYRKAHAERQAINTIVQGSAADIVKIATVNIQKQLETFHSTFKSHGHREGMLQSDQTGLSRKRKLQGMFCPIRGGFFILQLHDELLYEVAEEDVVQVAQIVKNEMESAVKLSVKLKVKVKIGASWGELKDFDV
Description: Polθ Polymerase Domain Kinact/Kl Assay (PicoGreen). In kind it is biochemical. Particulars: covalent inhibitors, kobs vs [I] fit, 0.8 nM Polθ, 100 nM DNA substrate. As for the experimental part: Polθ Polymerase Domain Kinact/Kl Assay
A PicoGreen assay was used to measure the Kinact and Kl values of covalent compounds that inhibit the activity of Polθ in vitro.
Human Polθ polymerase domain (aa1820-2590) was expressed in E. Coli, purified, aliquoted and stored at −80° C. until required. Polθ substrate was generated from a 1.2:1 mix of DNA II Short to DNA II Long to give a final concentration of […] substrate in annealing buffer (20 mM Tris pH 7.5, 50 mM NaCl). The substrate was heated in 50 mL aliquots to 95° C. in a heating block for 5 min before the heating block switched off, the reaction left to cool to rt and stored at −20° C. until required.
Assay measurements were performed with 1× buffer comprising 25 mM Tris pH 7.5, 12.5 mM NaCl, […], 5% (v/v) glycerol, 0.01% v/v Triton x-100, 0.1 mg/ml BSA, 1 mM DTT. Test compounds were prepared by dilution in 100% DMSO to give a 12 μM intermediate stock of each (100× final top concentration). 100 nL of 23× 1:1.5-fold serial dilutions and a DMSO only control were dispensed using the Tecan dispenser into Greiner 384 well black low volume plates (product code 784076). DMSO concentration was maintained at 1% of the final assay volume by back filling with DMSO.
2× Working stock of substrate (200 nM of DNA substrate and […] dNTPs) and enzyme (1.4 nM Polθ) were made up in assay buffer. 5 μL/well of both enzyme and substrate 2× solutions were dispensed using a Tempest dispenser (Formulatrix) into assay plates that had been pre-dispensed with compound to give a final assay concentration of 100 nM DNA substrate, […] dNTPs and 0.8 nM Polθ. To stop the reaction, […] of a solution containing 25 mM Tris-HCl pH 7.5 and 20 mM EDTA was added at […] (t=0, 2.5, 5, 7.5, 10, 12.5, 15, 20, 25, 30, 35, 40, 45, 50, 55 and 60 min) using the Tempest's time delay function. The plates were covered during the time course to prevent evaporation. After completing the assay, 5 μL of detection reagent (25 mM Tris-HCl pH 7.5 and 2.5% (v/v) PicoGreen) was dispensed into the wells using a Tempest liquid handler (Formulatrix) and plates subsequently read on the CLARIOstar Plus (BMG Labtech) using the default optical settings for fluorescein and the auto gain/focus settings.
All data analysis was carried out using GraphPad Prism V. 8 (GraphPad Software Inc, San Diego, CA) Time course data for each inhibitor concentration was fitted to equation 1 to determine kobs values.^1 Any time points where the control (DMSO alone) reaction was no longer linear were excluded from the analysis.
A secondary plot of kobs vs [I] is used to determine the Kinact and Kl parameters (for a 2-step covalent inhibitor) by fitting to equation 2.1
[formula] • 1) Evaluation of Enzyme Inhibitors in Drug Discovery (Ch9), R. A Copeland, Wiley, 2nd Edition 2013.
For the molecule “2-(((3S)-6-(2-(7- ((E)-4-(Dimethyl- amino)but-2-eno- yl)-1-oxo-2,7- diazaspiro[4.4] nonan-2-yl)ethyl)- 7-fluoro-1- methyl-2-oxo- 1,2,3,4,5,6-hexa- hydrobenzo[b] [1,4]diazocin-3- yl)amino)-6-meth- yl-4-(trifluoro- methyl)nicotino- nitrile [Example 47]”, the kinact/KI came out at 380000 M⁻¹ s⁻¹.

As to “2-(((S)-6-(2-((1R,4R)-5- (1-Acryloylazetidin-3-yl)- 2,5-diazabicyclo[2.2.1] heptan-2-yl)ethyl)-7- fluoro-1-methyl-2-oxo- 1,2,3,4,5,6-hexahydro- benzo[b][1,4]diazocin-3- yl)amino)-6-methyl-4- (trifluoromethyl)nicotino- nitrile [Example 18]”, the kinact/KI is 230000 M⁻¹ s⁻¹.

Regarding “2-(((S)-6-(2-((1S,4S)-5- (1-Acryloylazetidin-3-yl)- 2,5-diazabicyclo[2.2.1] heptan-2-yl)ethyl)-7- fluoro-1-methyl-2-oxo- 1,2,3,4,5,6-hexahydro- benzo[b][1,4]diazocin-3- yl)amino)-6-methyl-4- (trifluoromethyl)nicotino- nitrile [Example 19]”, the kinact/KI came out at 160000 M⁻¹ s⁻¹.

For the molecule “2-(((S)-6-(2-((R)-4-(1- Acryloylazetidin-3-yl)-2- methylpiperazin-1-yl)eth- yl)-7-fluoro-1-methyl-2- oxo-1,2,3,4,5,6-hexahydro- benzo[b][1,4]diazocin-3- yl)amino)-6-methyl-4- (trifluoromethyl)nicotino- nitrile [Example 15]”, the kinact/KI turned out to be 280000 M⁻¹ s⁻¹.

For the molecule “2-(((S)-6-(2-((S)-4-(1- Acryloylazetidin-3-yl)-2- methylpiperazin-1-yl)eth- yl)-7-fluoro-1-methyl-2- oxo-1,2,3,4,5,6-hexahydro- benzo[b][1,4]diazocin-3- yl)amino)-6-methyl-4- (trifluoromethyl)nicotino- nitrile [Example 14]”, the kinact/KI turned out to be 780000 M⁻¹ s⁻¹.

Turning to `Cc1cc(C(F)(F)F)c(C#N)c(N[C@H]2CCN(CC(O)CN3CCN(C(=O)/C=C/CN(C)C)CC3)c3c(F)cccc3N(C)C2=O)n1` (mixture of isomers) [Example 32A, 2-(((S)-6-((S/R)-3-(4-((E)-4-(Dimethylamino)but-2-enoyl)piperazin-1-yl)-2-hydroxypropyl)-7-fluoro-1-methyl-2-oxo-1,2,3,4,5,6-hexahydrobenzo[b][1,4]diazocin-3-yl)amino)-6-methyl-4-(trifluoromethyl)nicotinonitrile], the kinact/KI is 770000 M⁻¹ s⁻¹.

As for `C=CC(=O)N1CCN(CC(O)CN2CC[C@H](Nc3nc(C)cc(C(F)(F)F)c3C#N)C(=O)N(C)c3ccc(F)cc32)CC1` (mixture of isomers) [Example 33A, 2-(((S)-6-((S/R)-3-(4-Acryloylpiperazin-1-yl)-2-hydroxypropyl)-8-fluoro-1-methyl-2-oxo-1,2,3,4,5,6-hexahydrobenzo[b][1,4]diazocin-3-yl)amino)-6-methyl-4-(trifluoromethyl)nicotinonitrile], the kinact/KI came to 150000 M⁻¹ s⁻¹.

As for `Cc1cc(C(F)(F)F)c(C#N)c(N[C@H]2CCN(CC(O)CN3CCN(C(=O)/C=C/CN(C)C)CC3)c3cc(F)ccc3N(C)C2=O)n1` (mixture of isomers) [Example 34A, 2-(((S)-6-((S/R)-3-(4-((E)-4-(Dimethylamino)but-2-enoyl)piperazin-1-yl)-2-hydroxypropyl)-8-fluoro-1-methyl-2-oxo-1,2,3,4,5,6-hexahydrobenzo[b][1,4]diazocin-3-yl)amino)-6-methyl-4-(trifluoromethyl)nicotinonitrile], the kinact/KI amounted to 190000 M⁻¹ s⁻¹.

For the molecule `C=CC(=O)N1CC(N2CC(=O)N(C)C(CN3CC[C@H](Nc4nc(C)cc(C(F)(F)F)c4C#N)C(=O)N(C)c4cccc(F)c43)C2)C1` (mixture of isomers) [Example 58A, 2-(((S)-6-(((S/R)-4-(1-Acryloylazetidin-3-yl)-1-methyl-6-oxopiperazin-2-yl)methyl)-7-fluoro-1-methyl-2-oxo-1,2,3,4,5,6-hexahydrobenzo[b][1,4]diazocin-3-yl)amino)-6-methyl-4-(trifluoromethyl)nicotinonitrile], the kinact/KI worked out at 60000 M⁻¹ s⁻¹.

`C=CC(=O)N1CCN2CCN(CCN3CC[C@H](Nc4nc(C)cc(C(F)(F)F)c4C#N)C(=O)N(C)c4cccc(F)c43)CC2C1` (mixture of isomers) [Example 72B, 2-(((S)-6-(2-((S/R)-8-acryloyloctahydro-2H-pyrazino[1,2-a]pyrazin-2-yl)ethyl)-7-fluoro-1-methyl-2-oxo-1,2,3,4,5,6-hexahydrobenzo[b][1,4]diazocin-3-yl)amino)-6-methyl-4-(trifluoromethyl)nicotinonitrile]: the kinact/KI stood at 630000 M⁻¹ s⁻¹.

Still in this test, the particulars now being: covalent inhibitors, kobs vs [I] fit, 0.8 nM Polθ, 100 nM DNA substrate, read-out: Kinact/KI.
As for `CO[C@H]1CN(C(=O)/C=C/CN(C)C)C[C@@H]1C(=O)N(C)CCN1CC[C@H](Nc2nc(C)cc(C(F)(F)F)c2C#N)C(=O)N(C)c2cccc(F)c21` (relative stereo) [Example 28, (rel-3S,4R)—N-(2-((S)-4-((3-Cyano-6-methyl-4-(trifluoromethyl)pyridin-2-yl)amino)-10-fluoro-6-methyl-5-oxo-3,4,5,6-tetrahydrobenzo[b][1,4]diazocin-1(2H)-yl)ethyl)-1-((E)-4-(dimethylamino)but-2-enoyl)-4-methoxy-N-methylpyrrolidine-3-carboxamide], the kinact/KI came out at 560000 M⁻¹ s⁻¹.

Take `CO[C@H]1CN(C(=O)/C=C/CN(C)C)C[C@@H]1COCCN1CC[C@H](Nc2nc(C)cc(C(F)(F)F)c2C#N)C(=O)N(C)c2cccc(F)c21` (relative stereo) [Example 48, 2-(((S)-6-(2-(((rel-3R,4R)-1-((E)-4-(Dimethylamino)-but-2-enoyl)-4-methoxypyrroli-din-3-yl)methoxy)-ethyl)-7-fluoro-1-methyl-2-oxo-1,2,3,4,5,6-hexa-hydrobenzo[b] [1,4]diazocin-3-yl)amino)-6-meth-yl-4-(trifluoro-methyl)nicotino-nitrile]: the kinact/KI stood at 680000 M⁻¹ s⁻¹.

For the molecule `Cc1cc(C(F)(F)F)c(C#N)c(N[C@H]2CCN(CC(O)CN3CCN(C(=O)/C=C/CN(C)C)CC3)c3c(F)cccc3N(C)C2=O)n1` (single isomer, unassigned) [Example 32B], the kinact/KI is 1e+06 M⁻¹ s⁻¹.

In the case of `C=CC(=O)N1CCN(CC(O)CN2CC[C@H](Nc3nc(C)cc(C(F)(F)F)c3C#N)C(=O)N(C)c3ccc(F)cc32)CC1` (single isomer, unassigned) [Example 33B], the kinact/KI stood at 120000 M⁻¹ s⁻¹.

For the molecule `Cc1cc(C(F)(F)F)c(C#N)c(N[C@H]2CCN(CC(O)CN3CCN(C(=O)/C=C/CN(C)C)CC3)c3cc(F)ccc3N(C)C2=O)n1` (single isomer, unassigned) [Example 34B], the kinact/KI was determined as 680000 M⁻¹ s⁻¹.
